Measured values taken from ChEMBL document CHEMBL1828590 (J Med Chem, 2011).

What was measured:
[1] = Half life in rat liver microsomes; assay type: ADME, Microsome
HCT-116 [2] = assay: Antitumor activity against human HCT116 cells xenografted in athymic nu/nu Harlan mouse assessed as tumor growth inhibition at 100 mg/kg, po qd for 21 days measured on day 22; assay type: functional; settings: read-out: TGI
[3] = Half life in dog liver microsomes; assay type: ADME, Canis lupus familiaris, Microsome
[4] = Apparent permeability from basolateral to apical side of human Caco2 cells; assay type: ADME, cell-based; settings: Caco-2
[5] = 1-Octanol-sodium phosphate buffer distribution coefficient, log D of the compound at pH 7.4; assay type: physicochemical; settings: 1-octanol/sodium phosphate buffer, read-out: logD
[6] = Half life in mouse liver microsomes; assay type: ADME, Microsome; settings: liver microsomes
Mus musculus [7] = assay: Toxicity in athymic nu/nu Harlan mouse xenografted with human HCT116 cells assessed as mouse survival at 25 mg/kg, po QD for 21 days measured on day 22; assay type: organism-based, HCT-116; design: dose 25 mg/kg, route oral; settings: in vivo, 504 h
Mus musculus [8] = assay: Toxicity in athymic nu/nu Harlan mouse xenografted with human HCT116 cells assessed as mouse survival at 50 mg/kg, po QD for 21 days measured on day 22; assay type: organism-based, HCT-116; design: dose 50 mg/kg, route oral; settings: in vivo, 504 h
Mus musculus [9] = assay: Toxicity in athymic nu/nu Harlan mouse xenografted with human HCT116 cells assessed as body weight loss at 100 mg/kg, po QD for 21 days measured on day 22; assay type: organism-based, HCT-116; design: dose 100 mg/kg, route oral; settings: in vivo, 504 h
HCT-116 [10] = assay: Antitumor activity against human HCT116 cells xenografted in athymic nu/nu Harlan mouse assessed as tumor growth inhibition at 50 mg/kg, po qd for 21 days measured on day 22; assay type: functional; settings: read-out: TGI
HCT-116 [11] = assay: Antitumor activity against human HCT116 cells xenografted in athymic nu/nu Harlan mouse assessed as tumor growth inhibition at 25 mg/kg, po qd for 21 days measured on day 22; assay type: functional; settings: read-out: TGI
Mus musculus [12] = assay: Toxicity in athymic nu/nu Harlan mouse xenografted with human HCT116 cells assessed as body weight loss at 50 mg/kg, po QD for 21 days measured on day 5; assay type: organism-based, HCT-116; design: dose 50 mg/kg, route oral; settings: in vivo, 504 h
[13] = Half life in human liver microsomes; assay type: ADME, Microsome
[14] = Kinetic solubility of the compound at pH 7 with […] DMSO; assay type: physicochemical; settings: buffer, read-out: Kinetic_solubility
Mus musculus [15] = assay: Toxicity in athymic nu/nu Harlan mouse xenografted with human HCT116 cells assessed as mouse survival at 100 mg/kg, po QD for 21 days measured on day 22; assay type: organism-based, HCT-116; design: dose 100 mg/kg, route oral; settings: in vivo, 504 h
[16] = Apparent permeability from apical to basolateral side of human Caco2 cells; assay type: ADME, cell-based; settings: Caco-2
HCT-116 [17] = assay: Antitumor activity against human HCT116 cells xenografted in athymic nu/nu Harlan mouse assessed as tumor growth inhibition at 50 mg/kg, po qd for 21 days measured on day 22; settings: HCT-116, po, read-out: TGI
Mus musculus [18] = assay: Toxicity in athymic nu/nu Harlan mouse xenografted with human HCT116 cells assessed as body weight loss at 100 mg/kg, po QD for 7 days measured on day 5; assay type: organism-based, HCT-116; design: dose 100 mg/kg, route oral; settings: in vivo, 168 h
Mus musculus [19] = assay: Toxicity in athymic nu/nu Harlan mouse xenografted with human HCT116 cells assessed as mouse survival at 100 mg/kg, po QD for 7 days measured on day 22; assay type: organism-based, HCT-116; design: dose 100 mg/kg, route oral; settings: in vivo, 168 h
Mus musculus [20] = assay: Toxicity in athymic nu/nu Harlan mouse xenografted with human HCT116 cells assessed as body weight loss at 50 mg/kg, po QD for 21 days measured on day 5; settings: in vivo, 504 h
HCT-116 [21] = assay: Antitumor activity against human HCT116 cells xenografted in athymic nu/nu Harlan mouse assessed as tumor growth inhibition at 100 mg/kg, po qd measured on day 22; settings: HCT-116, po, read-out: TGI
HCT-116 [22] = assay: Antitumor activity against human HCT116 cells xenografted in athymic nu/nu Harlan mouse assessed as tumor growth inhibition at 200 mg/kg, po qd for 7 days measured on day 22; assay type: functional; settings: read-out: TGI
Mus musculus [23] = assay: Toxicity in athymic nu/nu Harlan mouse xenografted with human HCT116 cells assessed as mouse survival at 50 mg/kg, po QD for 7 days measured on day 22; assay type: organism-based, HCT-116; design: dose 50 mg/kg, route oral; settings: in vivo, 168 h
Mus musculus [24] = assay: Toxicity in athymic nu/nu Harlan mouse xenografted with human HCT116 cells assessed as body weight loss at 200 mg/kg, po QD for 7 days measured on day 5; settings: in vivo, 168 h

CN(C)CC(C)(C)Cn1c(CC(C)(C)C)nc2cc(/C=C/C(=O)NO)ccc21.Cl.Cl
half-life [1]: 41 min
inhibition in vivo at 100 mg/kg (HCT-116 [2]): 85%
half-life [3]: > 60 min
Papp B→A [4]: 14.9 ×10⁻⁶ cm/s
logD [5]: 2.41
half-life [6]: 20 min
Activity (Mus musculus [7]): Non-toxic
Activity (Mus musculus [8]): Non-toxic
Activity (Mus musculus [9]): 13.1%
inhibition in vivo at 50 mg/kg (HCT-116 [10]): 55%
inhibition in vivo at 25 mg/kg (HCT-116 [11]): 30%
Activity (Mus musculus [12]): 5.6%
half-life [13]: > 60 min
solubility kinetic [14]: > 200 µM
Activity (Mus musculus [15]): Non-toxic
Papp A→B [16]: 19.4 ×10⁻⁶ cm/s

CCCCCCc1nc2cc(/C=C/C(=O)NO)ccc2n1CCN(C)C.Cl.Cl
half-life [1]: 10 min
inhibition in vivo at 50 mg/kg (HCT-116 [17]): 17%
half-life [3]: 10 min
Papp B→A [4]: 26 ×10⁻⁶ cm/s
Activity (Mus musculus [18]): 4.9%
Activity (Mus musculus [19]): Non-toxic
Activity (Mus musculus [20]): 1.9%
half-life [6]: 16 min
inhibition in vivo at 100 mg/kg (HCT-116 [21]): 50%
inhibition in vivo at 200 mg/kg (HCT-116 [22]): 53%
Activity (Mus musculus [23]): Non-toxic
half-life [13]: > 60 min
solubility kinetic [14]: > 200 µM
Papp A→B [16]: 9.59 ×10⁻⁶ cm/s
Activity (Mus musculus [24]): 18%
